For orientation: MIC means the smallest concentration in the dilution series that meets the test's criterion for growth inhibition. The term ED50 denotes the dose at which the effect has come halfway, by size or by number of responders.

The values that follow come from patent US5438052A, “Cephalosporin derivatives” (Hoffmann-La Roche Inc., priority 1991, dated 1995).

In assay [1] the test system is E. coli 25922. Kind of assay: Minimum inhibitory concentration in vitro, agar dilution method. Format: cell-based. To be noted: Escherichia coli; E. coli 25922, agar dilution; read-out: MIC. The source says:
(§1) 1. Minimum Inhibitory Concentration in vitro
(§2) The activities ascertained, minimum inhibitory concentration (MIC) in μg/ml, are compiled in Table 1 hereinafter: […]

The next assay has as its system E. cloacae 908R. The description is as above. It is filed as cell-based. To be noted: Enterobacter cloacae; E. cloacae 908R, agar dilution; read-out: MIC.
Excerpt: as §1, §2
(In agar dilution the substance is mixed into plates at graded concentrations.)

A further assay deals with P. aeruginosa MK1184. Described as above. Format: cell-based. To be noted: Pseudomonas aeruginosa; P. aeruginosa MK1184, agar dilution; read-out: MIC.
Excerpt: as §1, §2

In another assay the test system is P. aeruginosa 799/61. The assay is described as above. It is filed as cell-based. To be noted: Pseudomonas aeruginosa; P. aeruginosa 799/61, agar dilution; read-out: MIC.
Excerpt: as §1, §2

A further assay deals with P. aeruginosa 799/WT. The assay is described as above. Format: cell-based. To be noted: Pseudomonas aeruginosa; P. aeruginosa 799/WT, agar dilution; read-out: MIC.
Excerpt: as §1, §2

A further assay has as its system S. aureus 6538. Described as above. Format: cell-based. Particulars: Staphylococcus aureus; S. aureus 6538, agar dilution; read-out: MIC.
Excerpt: as §1, §2

For the next assay, the system named is E. cloacae P99. The assay is described as above. Format: cell-based. To be noted: Enterobacter cloacae.
Excerpt: as §1, §2

A further assay concerns K. pneumoniae 418. Described as above. Format: cell-based. Particulars: Klebsiella pneumoniae; K. pneumoniae 418, agar dilution; read-out: MIC.
Excerpt: as §1, §2

The next assay relates to C. freundii 902. The assay is described as above. Format: cell-based. Particulars: Citrobacter freundii; C. freundii 902, agar dilution; read-out: MIC.
Excerpt: as §1, §2

Another assay concerns S. marcescens 69438. The assay is described as above. It is filed as cell-based. Particulars: Serratia marcescens; S. marcescens 69438, agar dilution; read-out: MIC.
Excerpt: as §1, §2

The next assay relates to E. cloacae 908SSi. The assay is described as above. Format: cell-based. Particulars: Enterobacter cloacae; E. cloacae 908SSi, agar dilution; read-out: MIC.
Excerpt: as §1, §2

Another assay has as its system E. aerogenes CF153. The assay is described as above. It is filed as cell-based. To be noted: Klebsiella aerogenes; E. aerogenes CF153, agar dilution; read-out: MIC.
Excerpt: as §1, §2

Another assay deals with S. pyogenes 15. The assay is described as above. To be noted: Streptococcus pyogenes; S. pyogenes 15, agar dilution; read-out: MIC. Format: cell-based.
Excerpt: as §1, §2

A further assay concerns K. oxytoca 1082. The description is as above. It is filed as cell-based. Particulars: Klebsiella oxytoca; K. oxytoca 1082, agar dilution; read-out: MIC.
Excerpt: as §1, §2

The test system of the next assay is P. mirabilis 2117. Described as above. To be noted: Proteus mirabilis; P. mirabilis 2117, agar dilution; read-out: MIC. Format: cell-based.
Excerpt: as §1, §2

The next assay relates to P. aeruginosa 27853. The assay is described as above. Format: cell-based. Particulars: Pseudomonas aeruginosa; P. aeruginosa 27853, agar dilution; read-out: MIC.
Excerpt: as §1, §2

The next assay concerns P. vulgaris 1028. The description is as above. Format: cell-based. To be noted: Proteus vulgaris; P. vulgaris 1028, agar dilution; read-out: MIC.
Excerpt: as §1, §2

The subject of a further assay is P. aeruginosa BA. Described as above. Format: cell-based. Particulars: Pseudomonas aeruginosa; P. aeruginosa BA, agar dilution; read-out: MIC.
Excerpt: as §1, §2

The subject of assay [2] is E. coli 25922. Nature of the assay: Experimental systemic septicaemia in the mouse. Format: in vivo. To be noted: Escherichia coli, sc, 96 h; E. coli 25922, albino mice, s.c. 1 and 3 hours after infection, survival after 4 days; read-out: ED50. On the procedure:
(§3) 2. Experimental systemic septicaemia in the mouse
(§4) An experimental systemic septicaemia was produced in albino mice weighing 16-20 g by intraperitoneally injecting into the experimental animals a sample of a dilute culture of the test organism which had been grown overnight. The sample administered is calculated such that the dosage administered is about 5-100 times greater than the dosage which is required to kill 50% of untreated experimental animals within 48 hours. The bacteria were injected as a suspension in the culture broth. Groups of 5 experimental animals each were used not only for the control, but also for the treatment for each dosage tested. The products in accordance with the invention were administered subcutaneously as a suspension in Tween 80 (2%), whereby the concentrations were chosen such that each experimental animal received 500 μl per administration. The respective concentrations were administered twice, namely 1 and 3 hours after the infection (in the case of P. aeruginosa three times, namely 1, 3 and 5 hours after the infection). The ED50 is that dosage which protects 50% of the experimental animals and was calculated by means of the Probit method on the basis of the survial rate after 4 days following the infection. The ED50 values in mg/kg s.c. (subcutaneous) for representatives of the class of substance in accordance with the invention are given in Table 2 hereinafter.

In assay [3] the test system is Pseudomonas aeruginosa BA. Kind of assay: Experimental systemic septicaemia in the mouse. It is filed as in vivo. Particulars: sc, 96 h, P. aeruginosa BA, albino mice, s.c. 1, 3 and 5 hours after infection, survival after 4 days, read-out: ED50. On the procedure: as §3, §4

≈ marks a conversion by molar mass, not a printed value. Counter-ions that a name gives are not always drawn.

With `CC(C)(O/N=C(\C(=O)N[C@@H]1C(=O)N2C(C(=O)O)=C(CSc3nc(-c4ccccc4)ncc3-c3ccc(O)c(O)c3)CS[C@H]12)c1csc(N)n1)C(=O)NNC(=O)c1ccc(O)c(O)c1` [Example 46, (6R,7R)-7-[(Z)-2-(2-amino-4-thiazolyl)-2-[[1-[3-(3,4-dihydroxybenzoyl)carbazoyl]-1-methylethoxy]imino]acetamido]-3-[[[5-(3,4-dihydroxyphenyl)-2-phenyl-4-pyrimidinyl]thio]methyl]-8-oxo-5-thia-1-azabicyclo[4.2.0]oct-2-ene-2-carboxylic acid], the MIC in the assay with E. coli 25922 [1] is 0.12 µg/mL (≈ 0.131 µM); in the assay with E. cloacae 908R, 1 µg/mL (≈ 1.09 µM); with P. aeruginosa MK1184, 2 µg/mL (≈ 2.19 µM); in the assay with P. aeruginosa 799/61 it was less than 0.1 µg/mL; with P. aeruginosa 799/WT, 0.25 µg/mL (≈ 0.274 µM); in the assay on S. aureus 6538, more than 32 µg/mL. For the same compound, the minimum inhibitory concentration (MIC) against E. cloacae P99 was 16 µg/mL (≈ 17.5 µM); in the assay on K. pneumoniae 418, 0.25 µg/mL (≈ 0.274 µM); with C. freundii 902, 0.5 µg/mL (≈ 0.547 µM); in the assay on S. marcescens 69438, 4 µg/mL (≈ 4.38 µM); in the assay on E. cloacae 908SSi, 16 µg/mL (≈ 17.5 µM); with E. aerogenes CF153 it was 0.25 µg/mL (≈ 0.274 µM). For the same compound, the MIC is 4 µg/mL (≈ 4.38 µM) in the assay on S. pyogenes 15; 2 µg/mL (≈ 2.19 µM) with K. oxytoca 1082; 0.25 µg/mL (≈ 0.274 µM) with P. mirabilis 2117; 0.25 µg/mL (≈ 0.274 µM) with P. aeruginosa 27853; 0.5 µg/mL (≈ 0.547 µM) with P. vulgaris 1028; 0.5 µg/mL (≈ 0.547 µM) with P. aeruginosa BA. Also, in the assay with E. coli 25922 [2], the ED50 was less than 0.5 mg/kg.

For `Nc1nc(/C(=N/OCc2nc(=O)c(O)c[nH]2)C(=O)N[C@@H]2C(=O)N3C(C(=O)O)=C(CSc4nc(-c5ccccc5)ncc4-c4ccc(O)c(O)c4)CS[C@H]23)cs1` [Example 16, (6R,7R)-7-[(Z)-2-(2-amino-4-thiazolyl)-2-[[(1,4-dihydro-5-hydroxy-4-oxo-2-pyrimidinyl)methoxy]imino]acetamido]-3-[[[5-(3,4-dihydroxyphenyl)-2-phenyl-4-pyrimidinyl]thio]methyl]-8-oxo-5-thia-1-azabicyclo[4.2.0]oct-2-ene-2-carboxylic acid], the MIC in the assay on E. coli 25922 [1] is less than 0.1 µg/mL; in the assay with E. cloacae 908R, 0.25 µg/mL (≈ 0.312 µM); with P. aeruginosa MK1184, more than 32 µg/mL; in the assay on P. aeruginosa 799/61 it was less than 0.1 µg/mL; in the assay on P. aeruginosa 799/WT it was 0.5 µg/mL (≈ 0.624 µM); in the assay with S. aureus 6538 it was 32 µg/mL (≈ 39.9 µM). Also, the MIC in the assay with E. cloacae P99 was 8 µg/mL (≈ 9.98 µM); with K. pneumoniae 418, less than 0.1 µg/mL; in the assay with C. freundii 902, 0.12 µg/mL (≈ 0.15 µM); with S. marcescens 69438, 1 µg/mL (≈ 1.25 µM); in the assay with E. cloacae 908SSi it was 8 µg/mL (≈ 9.98 µM); in the assay with E. aerogenes CF153 it was 0.12 µg/mL (≈ 0.15 µM). Moreover, the MIC with S. pyogenes 15 worked out at 0.25 µg/mL (≈ 0.312 µM); in the assay with K. oxytoca 1082, 0.25 µg/mL (≈ 0.312 µM); in the assay with P. mirabilis 2117, 0.25 µg/mL (≈ 0.312 µM); in the assay with P. aeruginosa 27853 it was 1 µg/mL (≈ 1.25 µM); in the assay with P. vulgaris 1028 it was 0.25 µg/mL (≈ 0.312 µM); in the assay with P. aeruginosa BA, 4 µg/mL (≈ 4.99 µM). In addition, the 50% effective dose (ED50) with E. coli 25922 [2] was less than 0.5 mg/kg; in assay [3], more than 2 mg/kg.

As to `Cc1cc(SCC2=C(C(=O)O)N3C(=O)[C@@H](NC(=O)/C(=N\OCc4nc(=O)c(O)c[nH]4)c4csc(N)n4)[C@H]3SC2)n2nc(CNS(=O)(=O)c3ccc(O)c(O)c3)nc2n1` [Example 2, (6R,7R)-7-[(Z)-2-(2-amino-4-thiazolyl)-2-[[(1,4-dihydro-5-hydroxy-4-oxo-2-pyrimidinyl)methoxy]imino]acetamido]-3-[[[2-[(3,4-dihydroxybenzenesulphonamido)methyl]-5-methyl-s-triazolo[1,5-a]pyrimidinyl-7-yl]thio]methyl]-8-oxo-5-thia-1-azabicyclo[4.2.0]oct-2-ene-2-carboxylic acid sodium salt (1:1)], the MIC in the assay with E. coli 25922 [1] was less than 0.1 µg/mL; with E. cloacae 908R, 1 µg/mL; in the assay on P. aeruginosa MK1184, 0.25 µg/mL; with P. aeruginosa 799/61, less than 0.1 µg/mL; in the assay with P. aeruginosa 799/WT, 0.12 µg/mL; in the assay with S. aureus 6538, 32 µg/mL. Further, the MIC was 16 µg/mL against E. cloacae P99; less than 0.25 µg/mL in the assay with K. pneumoniae 418; less than 0.1 µg/mL with C. freundii 902; less than 0.25 µg/mL in the assay on S. marcescens 69438; 4 µg/mL in the assay with E. cloacae 908SSi; 0.5 µg/mL in the assay with E. aerogenes CF153. For the same compound, the MIC is 2 µg/mL with S. pyogenes 15; 4 µg/mL in the assay on K. oxytoca 1082; 0.25 µg/mL in the assay with P. mirabilis 2117; less than 0.1 µg/mL with P. aeruginosa 27853; 0.5 µg/mL in the assay on P. vulgaris 1028; less than 0.1 µg/mL with P. aeruginosa BA. Also, the ED50 with E. coli 25922 [2] was 0.3 mg/kg.
